Laboratory results published in PMC10062662, “Quantitative determination of lurbinectedin, its unbound fraction and its metabolites in human plasma utilizing ultra-performance LC–MS/MS” (PLOS ONE, 2023).
Where two headings read alike, the source gives them in different places.

Legend:
[1] = Plasma protein binding by RED in artificial plasma (PBS with recombinant human AAG and albumin); format: in vitro ADME; conditions: human; for fraction unbound at 8 h, 500 ng/mL: lurbinectedin 500 ng/mL
From the text: (§1) RED was considered the best alternative over other methods (e.g., ultrafiltration) to separate lurbinectedin unbound fraction (fu), due to high non-specific binding (NSB) of lurbinectedin leading to adsorption. The RED device consists of a cylinder of dialysis membrane with an 8-kDa molecular weight cut-off held in place by a polytetrafluoroethylene support; the dialysis membrane tube is closed at one end. The RED devices are disposable and used in a reusable polytetrafluoroethylene support plate (holds a maximum of 48 devices). The design of the plate and device allows for PBS to be added in such a way that it can circulate freely around the cylinder of dialysis membrane. In use, spiked plasma (400 μL) is added to the dialysis membrane cylinder part of the RED device, and PBS (600 μL) is added to the other side. The plate, device and volumes used result in a consistent fluid level across both sides of the membrane, preventing mass movement of fluid across the membrane due to hydrostatic pressure.
(§2) Each measurement was performed using three RED devices; the devices were placed in the plate and spiked plasma and PBS were added. The plate was then mixed on an incubating microplate shaker at 100 rpm and 37°C for 8 hours.
(§3) Both the plasma (diluted 1 in 20 with plasma:PBS 1:1, v:v) and PBS (diluted with plasma 1:1, v:v) were assayed in triplicate using the extraction and UPLC-MS/MS method described above. Transfer of the PBS from the incubation plate into an equivalent volume of plasma prior to assay was performed using pipette tips that had been pre-treated with Sigmacote®.
(§4) PPB of lurbinectedin was also studied in artificial plasma (PBS with recombinant human AAG and albumin) at different levels of AAG, albumin and lurbinectedin to estimate the dissociation rate constants for each of these plasma proteins. Several experimental conditions, performed in triplicate, with triplicate analyses, were explored:
(§5) • Condition 1 with lurbinectedin at 500 ng/mL, AAG at 0, 0.25, 0.75, 1, 2 and 4 mg/mL and albumin at 40 mg/mL. • Condition 2 with lurbinectedin at 500 ng/mL, AAG at 1 mg/mL and albumin at 25, 35, 40, 45 and 50 mg/mL. • Condition 3 with lurbinectedin at 50, 75, 100, 250 and 500 ng/mL, AAG at 1 mg/mL and albumin at 40 mg/mL.

[2] = target: T1, recombinant human AAG and albumin (Homo sapiens, UniProt P02768); experiment: as above; format: in vitro ADME; conditions: without AAG, albumin 40 mg/mL, lurbinectedin 500 ng/mL
T1 construct: purchased Sigma-Aldrich
T1 sequence (P02768 25-609): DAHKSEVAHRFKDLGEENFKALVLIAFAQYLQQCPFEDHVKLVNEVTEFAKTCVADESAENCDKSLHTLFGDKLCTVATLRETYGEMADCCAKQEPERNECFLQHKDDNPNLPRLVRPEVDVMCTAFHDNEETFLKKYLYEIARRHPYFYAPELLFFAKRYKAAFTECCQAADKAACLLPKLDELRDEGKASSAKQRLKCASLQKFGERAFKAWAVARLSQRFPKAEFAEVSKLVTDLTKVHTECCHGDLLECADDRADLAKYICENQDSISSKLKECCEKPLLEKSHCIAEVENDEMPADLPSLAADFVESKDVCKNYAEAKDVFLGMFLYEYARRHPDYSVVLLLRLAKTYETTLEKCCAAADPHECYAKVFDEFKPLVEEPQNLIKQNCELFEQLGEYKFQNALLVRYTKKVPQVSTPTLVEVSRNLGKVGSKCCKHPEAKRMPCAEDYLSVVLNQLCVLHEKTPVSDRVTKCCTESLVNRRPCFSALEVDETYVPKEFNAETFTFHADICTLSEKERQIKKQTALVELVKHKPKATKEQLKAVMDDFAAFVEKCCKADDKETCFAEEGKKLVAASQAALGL
From the text: as §1, §2, §3, §4, §5

[3] = tested on: recombinant human AAG and albumin; experiment: as above; format: in vitro ADME
From the text: as §1, §2, §3, §4, §5

[4] = format: in vitro ADME; conditions: 20 ng/mL
Method: To ensure correct sample collection during the clinical trial procedures, whole-blood (using K3-EDTA as anticoagulant) stability was studied by spiking the blood (lurbinectedin at 20 ng/mL and M4 and M6 at 10 ng/mL). Aliquots of the whole blood were then centrifuged at 4°C for 0, 30, 60, 90 and 120 minutes post equilibration (15 minutes at 37°C) to produce plasma, which was then frozen prior to analysis. This was performed at room temperature (and in an ice bath for lurbinectedin). The derived plasma samples were analyzed in triplicate, and the criterion for acceptance was defined as having a response within ±15% of the zero-minute sample.

[5] = Non-specific binding in the absence of plasma proteins (RED method development); format: physicochemical; conditions: RED devices
From the text: To counteract the NSB, Sigmacote®-treated pipette tips were used.

[6] = set-up: method as in PMID 30090974; conditions: cited from earlier work; for reduction of total plasma clearance: 443 cancer patients

COc1ccc2[nH]c3c(c2c1)CCN[C@]31CS[C@@H]2c3c(OC(C)=O)c(C)c4c(c3[C@H](COC1=O)N1[C@@H]2[C@H]2c3c(cc(C)c(OC)c3O)C[C@@H]([C@@H]1O)N2C)OCO4 [Lurbinectedin]
fraction unbound at 8 h, 500 ng/mL ([1]; AAG 0.25 mg/mL, albumin 40 mg/mL, read-out: mean percent unbound): 0.0168
fraction unbound at 8 h, 500 ng/mL ([1]; AAG 0.75 mg/mL, albumin 40 mg/mL, read-out: mean percent unbound): 0.00604
fraction unbound at 8 h, 500 ng/mL ([1]; AAG 1 mg/mL, albumin 40 mg/mL, read-out: mean percent unbound): 0.00473
fraction unbound at 8 h, 500 ng/mL ([1]; AAG 2 mg/mL, albumin 40 mg/mL, read-out: mean percent unbound): 0.00259
fraction unbound at 8 h, 500 ng/mL ([1]; AAG 4 mg/mL, albumin 40 mg/mL, read-out: mean percent unbound): 0.00101
fraction unbound at 8 h, 500 ng/mL ([1]; condition 2: varying albumin 25-50 mg/mL, AAG 1 mg/mL, read-out: fu (percent unbound)): 0.00404
fraction unbound at 8 h ([1]; condition 3: varying lurbinectedin 50-500 ng/mL, AAG 1 mg/mL, albumin 40 mg/mL, read-out: fu (percent unbound)): 0.00393
fraction unbound at 8 h, 500 ng/mL ([2]; human, read-out: mean percent unbound): 0.0895
percent bound [2]: 91.1%
percent bound ([3]; AAG 0.25 mg/mL, albumin 40 mg/mL, lurbinectedin 500 ng/mL): 98.3%
percent bound ([3]; AAG 0.75 mg/mL, albumin 40 mg/mL, lurbinectedin 500 ng/mL): 99.4%
percent bound ([3]; AAG 1 mg/mL, albumin 40 mg/mL, lurbinectedin 500 ng/mL): 99.5%
percent bound ([3]; AAG 2 mg/mL, albumin 40 mg/mL, lurbinectedin 500 ng/mL): 99.7%
percent bound ([3]; AAG 4 mg/mL, albumin 40 mg/mL, lurbinectedin 500 ng/mL): 99.9%
percent bound ([3]; condition 2: varying albumin 25-50 mg/mL, AAG 1 mg/mL, lurbinectedin 500 ng/mL): 99.6%
percent bound ([3]; condition 3: varying lurbinectedin 50-500 ng/mL, AAG 1 mg/mL, albumin 40 mg/mL): 99.6%
stability in human whole K3-EDTA blood [4]: ≥ 120 min
non-specific binding (NSB) [5]: very high levels of NSB
hepatic extraction ratio [6]: 0.19
reduction of total plasma clearance ([6]; high alpha-1-acid glycoprotein (AAG)): 28%
reduction of total plasma clearance ([6]; low albumin): 20%
